How the values were obtained:
[1] = system: essential hypertension; assay: Hypertension (Example 13); settings: in vivo
Description: Also, C-5 unsubstituted tocols (i.e., all delta and gamma isomers) had this effect.

[2] = system: cholesterol; settings: Pearce et al. 1992; cited from earlier work
[3] = cited from earlier work
[4] = system: IKBKAP; settings: Anderson et al. 2003; cited from earlier work
[5] = system: spontaneous hypertensive rats (SHR); settings: Newaz and Nawal 1999; cited from earlier work
[6] = system: C-reactive protein; settings: higher dosage needed; cited from earlier work
[7] = some biologic systems; cited from earlier work

| Compound | NOS activity [1] | essential hypertension [1] | isomeric potency of cholesterol reduction (relative) [2] | Biologic activity relative to alpha-T3 ([3]; greater than alpha-T3) | Biologic activity relative to gamma-T3 ([3]; greater than gamma-T3) | increase of IKBKAP gene transcription [4] [fold] | development of increased blood pressure [1] | development of increased blood pressure [5] | required dosage to lower CRP to a comparable range, relative to annatto tocotrienols [6] | anti-oxidant power compared to alpha-T1 [7] |
| --- | --- | --- | --- | --- | --- | --- | --- | --- | --- | --- |
| CC(C)=CCC/C(C)=C/CC/C(C)=C/CC[C@]1(C)CCc2cc(O)cc(C)c2O1 [Delta-tocotrienol, delta-tocotrienol] | increased NOS activity | reduced essential hypertension | greater than gamma-T3 | 4-10 times | 1-2 times | 3.5 |  |  |  |  |
| CC(C)=CCC/C(C)=C/CC/C(C)=C/CC[C@]1(C)CCc2cc(O)c(C)c(C)c2O1 [Gamma-T3, gamma-tocotrienol] | increased NOS activity | reduced essential hypertension | five-fold greater than alpha-T3 |  |  |  | prevented the development of increased blood pressure | prevent the development of increased blood pressure |  |  |
| Cc1c(C)c2c(c(C)c1O)CC[C@@](C)(CCC[C@H](C)CCC[C@H](C)CCCC(C)C)O2 [alpha-T1, Alpha-tocopherol] |  |  |  |  |  |  |  |  | approximately 10 fold |  |
| Alpha-tocotrienol |  |  | at least five-fold less active |  |  |  |  |  |  | (40-60X in some biologic systems). First discovered to reduce cholesterol, |

Source: patent US8586109B2, “Annatto extract compositions including tocotrienols and tocopherols and methods of use” (American River Nutrition, Inc., priority 2003, dated 2013)
